# Values quoted from earlier work as cited in patent publication US20080161405A1, “Biguanide Composition and Method of Treatment and Prevention of Infections” (priority 2006, published 2008).
# Columns and labels:
# Aspergillus keratitis = conditions: 0.02%
# Fusarium Keratomycosis = conditions: 0.02% solution, rabbit model
# Acanthamoeba keratitis = conditions: case report, recurrence in the eye
# [1] = system: acanthamoeba cysts and trophazoites
Molecule,effectiveness in experimental Aspergillus keratitis (Aspergillus keratitis),reduction of fungal growth (Fusarium Keratomycosis),treatment of recurrence of Acanthamoeba keratitis (Acanthamoeba keratitis),minimum inhibitory concentration [1]
poly(hexamethylene biguanide) [polyhexamethylene biguanide],moderately effective,effective at reducing fungal growth,successfully treated,–
"CCCCC(CC)CNC(=N)NC(=N)NCCCCCCNC(=N)NC(=N)NCC(CC)CCCC (stereo not shown) [Alexidine, 1,1′-hexamethylene-bis[5-(2-ethylhexyl)biguanide]]",–,–,–,6.3 µg/mL
